According to patent US10329302B2, “Bicyclic-fused heteroaryl or aryl compounds” (Pfizer Inc., priority 2014, dated 2019):

The molecules below were run against human IRAK4 FL (Full Length) (Homo sapiens (Human), UniProt Q9NWZ3) (assay: IRAK4 Enzymatic DELFIA Assay, Protocol A). Conditions: not given.
Format: biochemical

Chain of human IRAK4 FL (Full Length) (Q9NWZ3 whole entry): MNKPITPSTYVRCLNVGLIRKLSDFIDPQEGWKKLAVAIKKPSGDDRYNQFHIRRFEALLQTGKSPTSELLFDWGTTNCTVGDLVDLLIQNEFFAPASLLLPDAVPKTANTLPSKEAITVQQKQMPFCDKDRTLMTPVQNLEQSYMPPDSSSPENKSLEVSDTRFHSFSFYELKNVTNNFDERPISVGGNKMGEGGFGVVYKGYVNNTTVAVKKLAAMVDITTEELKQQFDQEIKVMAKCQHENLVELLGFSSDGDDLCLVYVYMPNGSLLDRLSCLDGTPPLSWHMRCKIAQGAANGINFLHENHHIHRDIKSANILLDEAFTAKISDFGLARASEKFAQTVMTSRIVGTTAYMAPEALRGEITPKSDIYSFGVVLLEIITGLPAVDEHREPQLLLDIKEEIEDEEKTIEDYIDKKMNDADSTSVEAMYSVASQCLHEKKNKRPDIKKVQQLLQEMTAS

SMILES | IC50 [nM]
CC(C)Oc1cc2c(OC[C@@H]3CCC(=O)N3)ncc(CN)c2cc1C(N)=O [Example 195, 4-(aminomethyl)-1-{[(2S)-5-oxopyrrolidin-2-yl]methoxy}-7-(propan-2-yloxy)isoquinoline-6-carboxamide] | 3400

Same assay, conditions: human IRAK4 FL, 0.6 mM ATP (KM); read-out: IRAK4 DELFIA Protocol A IC50

SMILES | IC50 [nM]
Cc1cnc(OC[C@@H]2CCC(=O)N2)c2cc(OC(C)C)c(C(N)=O)cc12 [Example 05, 4-methyl-1-{[(2S)-5-oxopyrrolidin-2-yl]methoxy}-7-(propan-2-yloxy)isoquinoline-6-carboxamide] | 84
CC(C)Oc1cc2c(OC[C@@H]3CCN(C(=O)CC#N)C3)ccnc2cc1C(N)=O [Example 23, 4-{[(3R)-1-(cyanoacetyl)pyrrolidin-3-yl]methoxy}-6-(propan-2-yloxy)quinoline-7-carboxamide] | 656
CC(C)Oc1cc2c(OCC3CN(C(=O)CC#N)C3)ccnc2cc1C(N)=O [Example 60, 4-{[1-(cyanoacetyl)azetidin-3-yl]methoxy}-6-(propan-2-yloxy)quinoline-7-carboxamide] | 8.9
CC(C)Oc1cc2c(OCC3CN(C(=O)CC#N)C3)nccc2cc1C(N)=O [Example 69, 1-{[1-(cyanoacetyl)azetidin-3-yl]methoxy}-7-(propan-2-yloxy)isoquinoline-6-carboxamide] | 29
CC(C)Oc1cc2c(OCC3COCC(=O)N3)nccc2cc1C(N)=O (stereo not shown) [Example 116, 1-[(5-oxomorpholin-3-yl)methoxy]-7-(propan-2-yloxy)isoquinoline-6-carboxamide] | 146
CC(C)Oc1cc2c(OCC3NC(=O)C4CCCCC34)nccc2cc1C(N)=O (stereo not shown) [Example 118, 1-[(3-oxooctahydro-1H-isoindol-1-yl)methoxy]-7-(propan-2-yloxy)isoquinoline-6-carboxamide] | 162
NC(=O)c1cc2ccnc(OC[C@@H]3CCC(=O)N3)c2cc1OC1CCC1 [Example 120, 7-(cyclobutyloxy)-1-{[(2S)-5-oxopyrrolidin-2-yl]methoxy}isoquinoline-6-carboxamide] | 1140
CC(C)Oc1cc2c(OC[C@]34CCC[C@H]3CNC4)nccc2cc1C(N)=O [Example 123, 1-[(3aR,6aR)-hexahydrocyclopenta[c]pyrrol-3a(1H)-ylmethoxy]-7-(propan-2-yloxy)isoquinoline-6-carboxamide] | 747
CC(C)Oc1cc2c(OC[C@]3(C)CCC(=O)N3)nccc2cc1C(N)=O [Example 126, 1-{[(2S)-2-methyl-5-oxopyrrolidin-2-yl]methoxy}-7-(propan-2-yloxy)isoquinoline-6-carboxamide] | 42
NC(=O)c1cc2ccnc(OC[C@@H]3CCC(=O)N3)c2cc1OC(F)F [Example 129, 7-(difluoromethoxy)-1-{[(2S)-5-oxopyrrolidin-2-yl]methoxy}isoquinoline-6-carboxamide] | 231
CC(C)Oc1cc2c(OC[C@@H]3C[C@@](C)(F)C(=O)N3)nccc2cc1C(N)=O [Example 133, 1-{[(2S,4R)-4-fluoro-4-methyl-5-oxopyrrolidin-2-yl]methoxy}-7-(propan-2-yloxy)isoquinoline-6-carboxamide] | 175
CC(C)Oc1cc2c(OC[C@@H]3C[C@H](C(C)(C)O)C(=O)N3)nccc2cc1C(N)=O [Example 137, 1-{[(2S,4R)-4-(2-hydroxypropan-2-yl)-5-oxopyrrolidin-2-yl]methoxy}-7-(propan-2-yloxy)isoquinoline-6-carboxamide] | 98
CC(C)Oc1cc2c(OCC3CCC(=O)NC3)nccc2cc1C(N)=O (stereo not shown) [Example 142, 1-[(6-oxopiperidin-3-yl)methoxy]-7-(propan-2-yloxy)isoquinoline-6-carboxamide] | 1220
CC(C)Oc1cc2c(OCC3CCS(=O)(=O)N3)nccc2cc1C(N)=O (stereo not shown) [Example 143, 1-[(1,1-dioxido-1,2-thiazolidin-3-yl)methoxy]-7-(propan-2-yloxy)isoquinoline-6-carboxamide] | 2540
CC(C)Oc1cc2c(OC[C@H]3NC(=O)C[C@@H]3N)nccc2cc1C(N)=O [Example 149, 1-{[(2S,3S)-3-amino-5-oxopyrrolidin-2-yl]methoxy}-7-(propan-2-yloxy)isoquinoline-6-carboxamide] | 105
CC(C)Oc1cc2c(OC[C@@]3(CO)CCC(=O)N3)nccc2cc1C(N)=O [Example 153, 1-{[(2S)-2-(hydroxymethyl)-5-oxopyrrolidin-2-yl]methoxy}-7-(propan-2-yloxy)isoquinoline-6-carboxamide] | 1480
CC(C)Oc1cc2c(OC[C@]3(CO)CCC(=O)N3)nccc2cc1C(N)=O [Example 154, 1-{[(2R)-2-(hydroxymethyl)-5-oxopyrrolidin-2-yl]methoxy}-7-(propan-2-yloxy)isoquinoline-6-carboxamide] | 17
CC(C)Oc1cc2c(OC[C@H]3NC(=O)C[C@@H]3C(F)(F)F)nccc2cc1C(N)=O [Example 155, 1-{[(2S,3S)-5-oxo-3-(trifluoromethyl)pyrrolidin-2-yl]methoxy}-7-(propan-2-yloxy)isoquinoline-6-carboxamide] | 267

SMILES | IC50 [nM]
CC(C)Oc1cc2c(O[C@H](C)[C@@H]3CCC(=O)N3)nccc2cc1C(N)=O [Example 156, 1-{(1R)-1-[(2S)-5-oxopyrrolidin-2-yl]ethoxy}-7-(propan-2-yloxy)isoquinoline-6-carboxamide] | 4100
CC(C)Oc1cc2c(O[C@@H](C)[C@@H]3CCC(=O)N3)nccc2cc1C(N)=O [Example 157, 1-{(1S)-1-[(2S)-5-oxopyrrolidin-2-yl]ethoxy}-7-(propan-2-yloxy)isoquinoline-6-carboxamide] | 152
CC(C)Oc1cc2c(OC[C@@H]3C[C@H](CO)C(=O)N3)nccc2cc1C(N)=O [Example 165, 1-{[(2S,4R)-4-(hydroxymethyl)-5-oxopyrrolidin-2-yl]methoxy}-7-(propan-2-yloxy)isoquinoline-6-carboxamide] | 541
CC(C)Oc1cc2c(OC[C@@H]3CCC(=O)N3)nccc2cc1C(=O)O [Example 169, 1-{[(2S)-5-oxopyrrolidin-2-yl]methoxy}-7-(propan-2-yloxy)isoquinoline-6-carboxylic acid] | 890
CC(C)Oc1cc2c(OC[C@@H]3C[C@@](F)(C(C)(C)O)C(=O)N3)nccc2cc1C(N)=O [Example 171, 1-{[(2S,4R)-4-fluoro-4-(2-hydroxypropan-2-yl)-5-oxopyrrolidin-2-yl]methoxy}-7-(propan-2-yloxy)isoquinoline-6-carboxamide] | 101
CC(C)Oc1c(C(N)=O)cc2ccnc(OC[C@@H]3CCC(=O)N3)c2c1F [Example 176, 8-fluoro-1-{[(2S)-5-oxopyrrolidin-2-yl]methoxy}-7-(propan-2-yloxy)isoquinoline-6-carboxamide] | 695
NC(=O)c1cc2ccnc(OC[C@@H]3CCC(=O)N3)c2cc1OC(F)(F)F [Example 178, 1-{[(2S)-5-oxopyrrolidin-2-yl]methoxy}-7-(trifluoromethoxy)isoquinoline-6-carboxamide] | 1690
CC(C)Oc1cc2c(OC[C@@H]3C[C@@](O)(CC(F)(F)F)C(=O)N3)nccc2cc1C(N)=O [Example 182, 1-{[(2S,4R)-4-hydroxy-5-oxo-4-(2,2,2-trifluoroethyl)pyrrolidin-2-yl]methoxy}-7-(propan-2-yloxy)isoquinoline-6-carboxamide] | 1050
CC(C)Oc1cc2c(OC[C@@H]3CN(C)C(=O)N3)nccc2cc1C(N)=O [Example 185, 1-{[(4S)-1-methyl-2-oxoimidazolidin-4-yl]methoxy}-7-(propan-2-yloxy)isoquinoline-6-carboxamide] | 116
CC(C)Oc1cc2c(O[C@@H]3CCC[C@]34CCC(=O)N4)nccc2cc1C(N)=O [Example 186, 1-{[(5S,6R)-2-oxo-1-azaspiro[4.4]non-6-yl]oxy}-7-(propan-2-yloxy)isoquinoline-6-carboxamide] | 303
CC(C)Oc1cc2c(OC[C@@H]3CCC(=O)N3)ncc(C#N)c2cc1C(N)=O [Example 190, 4-cyano-1-{[(2S)-5-oxopyrrolidin-2-yl]methoxy}-7-(propan-2-yloxy)isoquinoline-6-carboxamide] | 294
CC(C)Oc1cc2c(OC[C@@H]3C[C@H](C4(O)COC4)C(=O)N3)nccc2cc1C(N)=O [Example 192, 1-{[(2S,4R)-4-(3-hydroxyoxetan-3-yl)-5-oxopyrrolidin-2-yl]methoxy}-7-(propan-2-yloxy)isoquinoline-6-carboxamide] | 284
CC(C)Oc1cc2c(OC[C@@H]3C[C@@H](C4(O)COC4)C(=O)N3)nccc2cc1C(N)=O [Example 193, 1-{[(2S,4S)-4-(3-hydroxyoxetan-3-yl)-5-oxopyrrolidin-2-yl]methoxy}-7-(propan-2-yloxy)isoquinoline-6-carboxamide] | 238
NC(=O)c1cc2ccnc(OC[C@@H]3CCC(=O)N3)c2cc1OC1COC1 [Example 199, 7-(oxetan-3-yloxy)-1-{[(2S)-5-oxopyrrolidin-2-yl]methoxy}isoquinoline-6-carboxamide] | 2900
CC(C)(C)Oc1cc2c(OC[C@@H]3CCC(=O)N3)nccc2cc1C(N)=O [Example 200, 7-tert-butoxy-1-{[(2S)-5-oxopyrrolidin-2-yl]methoxy}isoquinoline-6-carboxamide] | 697
NC(=O)c1cc2ccnc(OC[C@@H]3CCC(=O)N3)c2cc1OCC1CC1 [Example 204, 7-(cyclopropylmethoxy)-1-{[(2S)-5-oxopyrrolidin-2-yl]methoxy}isoquinoline-6-carboxamide] | 2060
COc1cc2c(OC[C@H]3NC(=O)[C@@](F)(CO)[C@H]3C)nccc2cc1C(N)=O [Example 210, 1-{[(2S,3S,4S)-4-fluoro-4-(hydroxymethyl)-3-methyl-5-oxopyrrolidin-2-yl]methoxy}-7-methoxyisoquinoline-6-carboxamide] | 3470
CC(C)Oc1cc2c(OC[C@H]3NC(=O)C[C@@H]3CO)nccc2cc1C(N)=O [Example 212, 1-{[(2S,3S)-3-(hydroxymethyl)-5-oxopyrrolidin-2-yl]methoxy}-7-(propan-2-yloxy)isoquinoline-6-carboxamide] | 150
